Measurements from ChEMBL document CHEMBL4043278, “Discovery of benzo[g]indoles as a novel class of non-covalent Keap1-Nrf2 protein-protein interaction inhibitor” (Bioorg Med Chem Lett, 2017).
Calls of active or inactive are those of the source. The calls are words filed in the database; no cut-off is given here.

Tests used:
HepG2 = assay: Cytotoxicity against human HepG2 cells assessed as reduction in cell viability at 50 uM after 24 hrs by WST8 assay; assay type: cell-based; conditions: hepg2, 24 h
[1] = Metabolic stability in human liver microsomes assessed as parent compound remaining at 1 uM preincubated for 3 mins followed by NADP+ addition measured after 30 mins by LC-MS assay; assay type: ADME, microsome; conditions: read-out: Stability
[2] = target: T1, Kelch-like ECH-associated protein 1/Nuclear factor erythroid 2-related factor 2 (Mus musculus) (UniProt Q60795+Q9Z2X8); assay: Inhibition of Keap1-Nrf2 protein-protein interaction in MEF assessed as increase in Nrf2 activation mediated NQO1 mRNA level at 10 uM after 4 hrs by qRT-PCR method
[3] = target: T1, Kelch-like ECH-associated protein 1/Nuclear factor erythroid 2-related factor 2 (Mus musculus); assay: Inhibition of Keap1-Nrf2 protein-protein interaction in MEF assessed as increase in Nrf2 activation mediated NQO1 mRNA level at 100 uM after 4 hrs by qRT-PCR method

T1 sequence (Q60795 whole entry, looked up): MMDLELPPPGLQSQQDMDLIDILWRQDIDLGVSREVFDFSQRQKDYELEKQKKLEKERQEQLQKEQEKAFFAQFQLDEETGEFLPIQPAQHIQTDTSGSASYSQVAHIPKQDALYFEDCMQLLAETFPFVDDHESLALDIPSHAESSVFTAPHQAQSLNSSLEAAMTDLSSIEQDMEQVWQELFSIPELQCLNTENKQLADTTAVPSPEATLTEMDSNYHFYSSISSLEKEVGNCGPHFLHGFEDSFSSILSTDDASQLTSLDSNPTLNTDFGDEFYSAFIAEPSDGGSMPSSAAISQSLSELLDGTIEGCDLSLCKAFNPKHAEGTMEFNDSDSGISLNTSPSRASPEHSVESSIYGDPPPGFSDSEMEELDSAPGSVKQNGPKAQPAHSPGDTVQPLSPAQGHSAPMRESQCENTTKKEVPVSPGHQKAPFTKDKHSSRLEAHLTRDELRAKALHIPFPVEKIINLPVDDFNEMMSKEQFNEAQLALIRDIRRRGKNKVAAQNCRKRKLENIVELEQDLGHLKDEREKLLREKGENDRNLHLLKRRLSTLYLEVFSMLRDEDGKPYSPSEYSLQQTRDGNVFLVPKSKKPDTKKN
T1 sequence (Q9Z2X8 whole entry, looked up): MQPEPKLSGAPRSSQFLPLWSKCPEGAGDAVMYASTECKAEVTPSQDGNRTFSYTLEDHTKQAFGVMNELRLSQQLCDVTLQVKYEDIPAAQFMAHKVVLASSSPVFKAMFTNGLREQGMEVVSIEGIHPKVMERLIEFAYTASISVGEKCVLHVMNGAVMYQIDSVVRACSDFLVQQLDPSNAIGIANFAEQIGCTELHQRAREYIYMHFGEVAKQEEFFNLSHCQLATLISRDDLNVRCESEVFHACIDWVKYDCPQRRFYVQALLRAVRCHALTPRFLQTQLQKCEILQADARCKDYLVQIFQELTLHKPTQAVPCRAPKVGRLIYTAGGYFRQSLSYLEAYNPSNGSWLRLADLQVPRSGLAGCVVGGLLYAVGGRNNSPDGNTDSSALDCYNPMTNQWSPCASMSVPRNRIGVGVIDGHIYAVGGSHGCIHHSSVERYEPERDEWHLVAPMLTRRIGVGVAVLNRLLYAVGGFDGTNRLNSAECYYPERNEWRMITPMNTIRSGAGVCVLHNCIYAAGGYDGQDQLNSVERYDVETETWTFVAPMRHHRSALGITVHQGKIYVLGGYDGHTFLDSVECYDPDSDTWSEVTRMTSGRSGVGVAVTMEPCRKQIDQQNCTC

SMILES | remaining at 0.5 h, 1 µM [1] [%] | inhibition [2] | inhibition [3] | Activity (HepG2)
CC(C)(C)c1cc(O)ccc1O |  | Active |  | 
COc1ccc(S(=O)(=O)N(CC(=O)O)c2ccc(N(CC(=O)O)S(=O)(=O)c3ccc(OC)cc3)c3ccccc23)cc1 | 58.6 |  |  | Non-Toxic
COc1cccc2c1C(=O)c1c(O)c3c(c(O)c1C2=O)C[C@@](O)(C(=O)CO)C[C@@H]3O[C@H]1C[C@H](N)[C@H](O)[C@H](C)O1 [DOXORUBICIN] |  |  |  | Toxic
COc1ccc(S(=O)(=O)Nc2ccc(NS(=O)(=O)c3ccc(OC)cc3)c3ccccc23)cc1 | 9.3 |  |  | 

Continued, in another order:

remaining at 0.5 h, 1 µM [1] [%] | inhibition [2] | inhibition [3] | SMILES | Activity (HepG2)
86.5 |  |  | COc1ccc(S(=O)(=O)Nc2cc3c(C(=O)NNc4ccc([N+](=O)[O-])cc4)c(C)n(S(=O)(=O)c4ccc(OC)cc4)c3c3ccccc23)cc1 | Toxic
46.6 |  |  | CCOc1ccc(S(=O)(=O)Nc2cc3c(C(=O)NN)c(C)n(S(=O)(=O)c4ccc(OCC)cc4)c3c3ccccc23)cc1 | Non-Toxic
85.4 |  |  | COc1ccc(S(=O)(=O)Nc2cc3c(C(=O)NNc4ccccc4)c(C)n(S(=O)(=O)c4ccc(OC)cc4)c3c3ccccc23)cc1 | Non-Toxic
90.8 |  |  | CNNC(=O)c1c(C)n(S(=O)(=O)c2ccc(OC)cc2)c2c1cc(NS(=O)(=O)c1ccc(OC)cc1)c1ccccc12 | Non-Toxic
94.8 |  |  | COc1ccc(NNC(=O)c2c(C)n(S(=O)(=O)c3ccc(OC)cc3)c3c2cc(NS(=O)(=O)c2ccc(OC)cc2)c2ccccc23)cc1 | Non-Toxic
81 |  | Active | CCOc1ccc(S(=O)(=O)Nc2cc3c(C(=O)NO)c(C)n(S(=O)(=O)c4ccc(OCC)cc4)c3c3ccccc23)cc1 | Non-Toxic
